Legend:
Test in all cases: GRmax, 72 h; higher = less effect;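 further: breast cell lines in 384-well plates, nine doses across a 10^4 range, Dye Drop imaging of viable cells vs DMSO and time-zero plates, GR 0 means no net growth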
HCC1428 = test system: HCC1428
HCC1500 = test system: HCC1500
MDAMB157 = test system: MDAMB157
MCF10A (GM) = test system: MCF10A (GM)
PDX1206 = test system: PDX1206

Row | SMILES | GRmax, 72 h (HCC1428) | GRmax, 72 h (HCC1500) | GRmax, 72 h (MDAMB157) | GRmax, 72 h (MCF10A (GM)) | GRmax, 72 h (PDX1206)
1 | Cc1nc(Nc2ncc(C(=O)Nc3c(C)cccc3Cl)s2)cc(N2CCN(CCO)CC2)n1 [Dasatinib] (max 10 µM) | 0.578 GR | -0.159 GR | 0.0683 GR | – | –
2 | COc1cccc2c1C(=O)c1c(O)c3c(c(O)c1C2=O)C[C@@](O)(C(=O)CO)C[C@@H]3O[C@H]1C[C@H](N)[C@H](O)[C@H](C)O1 [Doxorubicin] (max 3.162 µM) | -0.74 GR | -0.713 GR | -0.777 GR | – | –
3 | COc1cc([C@@H]2c3cc4c(cc3[C@@H](O[C@@H]3O[C@@H]5CO[C@@H](C)O[C@H]5[C@H](O)[C@H]3O)[C@H]3COC(=O)[C@H]23)OCO4)cc(OC)c1O [Etoposide] (max 10 µM) | -0.032 GR | -0.0766 GR | -0.434 GR | – | –
4 | CO[C@H]1C[C@@H]2CC[C@@H](C)[C@@](O)(O2)C(=O)C(=O)N2CCCC[C@H]2C(=O)O[C@H]([C@H](C)C[C@@H]2CC[C@@H](OCCO)[C@H](OC)C2)CC(=O)[C@H](C)/C=C(\C)[C@@H](O)[C@@H](OC)C(=O)[C@H](C)C[C@H](C)/C=C/C=C/C=C/1C [Everolimus] (max 10 µM) | 0.346 GR | -0.31 GR | 0.481 GR | – | –
5 | CCC(=O)Nc1ccc(C(=O)Nc2ccc(Nc3ncc4c(n3)N(C)c3ccc(C)cc3C(=O)N4C)cc2)cc1 [FMF-03-145-1] | – | – | – | 0.0984 GR | 0.128 GR
6 | COc1cc(N2CCN(C)CC2)ccc1Nc1ncc2c(n1)N(C)c1ccccc1C(=O)N2CC(F)(F)F [FMF-03-146-1] | – | – | – | 0.977 GR | 0.966 GR
7 | CN1CC[C@H](c2c(O)cc(O)c3c(=O)cc(-c4ccccc4Cl)oc23)[C@H](O)C1 [Flavopiridol] (max 1 µM) | – | – | – | -0.307 GR | -0.566 GR
8 | CC(C)n1nc(-c2ccc3oc(N)nc3c2)c2c(N)ncnc21 [INK128/MLN0128] (max 3.162 µM) | -0.0001 GR | -0.469 GR | -0.0331 GR | – | –
9 | CC(C)NC[C@@H](C(=O)N1CCN(c2ncnc3c2[C@H](C)C[C@H]3O)CC1)c1ccc(Cl)cc1 [Ipatasertib/GDC0068] (max 10 µM) | 0.991 GR | 1.08 GR | 0.596 GR | – | –
10 | CN(C)C(=O)c1cc2cnc(Nc3ccc(N4CCNCC4)cn3)nc2n1C1CCCC1 [LEE011/Ribociclib] (max 10 µM) | – | – | – | 0.519 GR | 0.713 GR
11 | CCNC(=O)c1noc(-c2cc(C(C)C)c(O)cc2O)c1-c1ccc(CN2CCOCC2)cc1 [Luminespib/NVP-AUY922] (max 1 µM) | -0.0043 GR | -0.224 GR | -0.049 GR | – | –
12 | CCOc1cc2ncc(C#N)c(Nc3ccc(OCc4ccccn4)c(Cl)c3)c2cc1NC(=O)/C=C/CN(C)C [Neratinib/HKI272] (max 3.162 µM) | -0.0412 GR | -0.287 GR | 0.117 GR | – | –
13 | O=C(c1cc(Cc2n[nH]c(=O)c3ccccc23)ccc1F)N1CCN(C(=O)C2CC2)CC1 [Olaparib/AZD2281] (max 10 µM) | 0.118 GR | 0.274 GR | 0.158 GR | – | –
14 | CC(=O)O[C@H]1C(=O)[C@@]2(C)[C@H]([C@H](OC(=O)c3ccccc3)[C@]3(O)C[C@H](OC(=O)[C@H](O)[C@@H](NC(=O)c4ccccc4)c4ccccc4)C(C)=C1C3(C)C)[C@]1(OC(C)=O)CO[C@@H]1C[C@@H]2O [Paclitaxel] (max 1 µM) | 0.0645 GR | -0.0589 GR | -0.67 GR | – | –
15 | CS(=O)(=O)N1CCN(Cc2cc3nc(-c4cccc5[nH]ncc45)nc(N4CCOCC4)c3s2)CC1 [Pictilisib/GDC0941] (max 10 µM) | 0.192 GR | -0.132 GR | 0.187 GR | – | –
16 | O=C1NC(=NCc2cccs2)SC1=Cc1ccc2ncccc2c1 [R0-3306] (max 10 µM) | – | – | – | -0.0351 GR | 0.0387 GR
17 | CNCc1ccc(-c2[nH]c3cc(F)cc4c3c2CCNC4=O)cc1 [Rucaparib] (max 10 µM) | – | – | – | 0.882 GR | 0.586 GR
18 | CN1CCN(CCOc2cc(OC3CCOCC3)c3c(Nc4c(Cl)ccc5c4OCO5)ncnc3c2)CC1 [Saracatinib/AZD0530] (max 10 µM) | 0.669 GR | -0.197 GR | 0.355 GR | – | –
19 | Cc1cc(C(C)Nc2ccccc2)c2nc(N3CCOCC3)cc(=O)n2c1 (centres undefined) [TGX221] (max 10 µM) | 0.769 GR | 0.503 GR | 0.824 GR | – | –
20 | Cc1nc(-c2cn3c(n2)-c2ccc(-c4cnn(C(C)(C)C(N)=O)c4)cc2OCC3)n(C(C)C)n1 [Taselisib/GDC0032] (max 10 µM) | 0.173 GR | -0.233 GR | 0.211 GR | – | –
21 | O=C1NC(=O)[C@@H](c2cn3c4c(cccc24)CCC3)[C@@H]1c1c[nH]c2ccccc12 [Tivantinib/ARQ197] (max 10 µM) | 0.0341 GR | -0.33 GR | -0.482 GR | – | –
22 | CC[C@@]1(O)C(=O)OCc2c1cc1n(c2=O)Cc2cc3c(CN(C)C)c(O)ccc3nc2-1 [Topotecan] (max 10 µM) | -0.376 GR | -0.801 GR | -0.833 GR | – | –
23 | Nc1ccc(-c2ccc3ncc4ccc(=O)n(-c5cccc(C(F)(F)F)c5)c4c3c2)cn1 [Torin2] (max 1 µM) | -0.0145 GR | -0.497 GR | -0.216 GR | – | –
24 | CC[C@@H]1C(=O)N(C)c2cnc(Nc3ccc(C(=O)N[C@H]4CC[C@H](N5CCN(CC6CC6)CC5)CC4)cc3OC)nc2N1C(C)C [Volasertib/BI6727] (max 1 µM) | -0.0388 GR | 0.286 GR | -0.664 GR | – | –
25 | O=C(CCCCCCC(=O)Nc1ccccc1)NO [Vorinostat] (max 10 µM) | -0.479 GR | -0.596 GR | -0.413 GR | – | –

Reference: the supplement of paper PMC9663587
